In one assay the test system is SkBr-3 Cells. Nature of the assay: Real-time PCR Apoptosis Array. The format is cell-based, human. Set-up: key: fold change in mRNA level; negative = down-regulation. The settings on record: 50 um Q10, 24 hours. Here is the method: (§1) RNA was quantified by measuring Optical Density at 260 nm.
Changes in mRNA levels were evaluated using real-time PCR quantification to assess mRNA levels in pre-selected subsets containing […] pathway specific targets.
For the interpretation of mRNA results, the genes that were altered in their mRNA transcription by a two-fold level were identified and evaluated. The level of gene transcription to produce mRNA only provides a rough estimate of potential changes in the level of the expressed protein. The skilled artisan will appreciate that each mRNA may have different rates at which it is degraded or its translation inefficiently, thus resulting in differing amounts of protein.
The assay method of RT-PCR was utilized to provide a measure of mRNA level changes to a total of 84 apoptotic pathway related proteins.

The subject of a further assay is SCC cells. The experiment in a line: Real-time PCR Heat Shock Protein Array. The format is cell-based.
Text: The control cells were untreated cells.
as §1
Heat Shock Arrays were run for SCC cells and the data of regulated genes is summarized below in Table 13.
In general terms: In qPCR the cycle at which signal appears reflects the starting amount.

Assay [1] concerns Pyruvate Dehydrogenase beta (PDH-E1). The experiment in a line: Western blot of pyruvate dehydrogenase beta levels. Format: cell-based, human. Here is the method: The samples were processed and run on a 4-12% Bis-Tris Novex NuPAGE gel as described above. The gels were run, transferred and stained essentially as described above.
The pyruvate kinase blots were stripped by incubating for 30 minutes with methanol, followed by two 10 minute washes with TBS-T, then 30 minutes of incubation with Stripping buffer at 50 deg C., and followed by two washes with 100 ml or more of TBS-T for 30′ each. The 2 blots were scanned in laser scanner to check for complete stripping. After making sure stripping of the antibody and the ECF reagent has worked, the blots were activated with methanol for 5 seconds, washed with water for 5 minutes, and TBST for 15 minutes. The blots are blocked for 1 hour with 5% blocking reagent in TBS-T at room temperature and then washed 3 times with TBS-T (1×-15′; 2×5′ each) and probed with the antibody for Pyruvate Dehydrogenase in 5% BSA (ABNOVA catalog #H00005162-M03) at 1:500 dilutions) overnight at 4 deg C. with shaking. […]
The levels of LDH and PDH were determined by probing the blots successively with primary antibodies for LDH and PDH, essentially as described above. […]
For orientation: A western blot detects proteins with antibodies after separation by electrophoresis.

The source of these data is US9205064B2, “Methods for the diagnosis of oncological disorders using epimetabolic shifters, multidimensional intracellular molecules, or environmental influencers” (Berg LLC, priority 2009, dated 2015).

As to `COC1=C(OC)C(=O)C(C/C=C(\C)CC/C=C(\C)CC/C=C(\C)CC/C=C(\C)CC/C=C(\C)CC/C=C(\C)CC/C=C(\C)CC/C=C(\C)CC/C=C(\C)CCC=C(C)C)=C(C)C1=O` [Q10, Coenzyme Q10], in the assay on SkBr-3 Cells, the “APAF1 mRNA Up-Down Regulation” value is 2.6244, the “BAX mRNA Up-Down Regulation” value is given as 3.896, the “BCL2L1 mRNA Up-Down Regulation” value is recorded as 13.1957 and the “BCL2L11 mRNA Up-Down Regulation” value amounted to 4.6012. Moreover, in the assay with SkBr-3 Cells, the “BCL2 mRNA Up-Down Regulation” value stood at 5.4717, the “BIRC6 mRNA Up-Down Regulation” value is on record as 4.7966, the “BNIP2 mRNA Up-Down Regulation” value is given as 6.3291 and the “BRAF mRNA Up-Down Regulation” value was 4.3832. In addition, in the assay with SkBr-3 Cells, the “HPRT1 mRNA Up-Down Regulation” value was −160.6748 and the “XIAP mRNA Up-Down Regulation” value was found to be 4.3832. Besides, in the assay on SCC cells (100 μM Q10, 6 hours), the “DNAJB5 mRNA Regulation” value is recorded as “Down regulated”, the “DNAJB13 mRNA Regulation” value was “Down regulated”, the “DNAJC4 mRNA Regulation” value is reported as “Down regulated” and the “DNAJC5B mRNA Regulation” value was “Down regulated”. Moreover, the “DNAJC12 mRNA Regulation” value in the assay with SCC cells (100 μM Q10, 6 hours) is given as “Down regulated”. Also, the “CCT6B mRNA Regulation” value in the assay on SCC cells (100 μM Q10, 24 hours) is given as “Down regulated”. Also, the “expression of PDH-E1” value in assay [1] (cancer cells) is “progressive increase”. The “expression of PDH-E1” value in assay [1] (normal cells) is recorded as “minimal changes”.
